Results from patent publication US20250161477A1, “NOVEL METHODS OF THERAPY” (BIVICTRIX LIMITED, priority 2022, published 2025).

B1: BVX04-a0094-AB4A-1 (CD33xCD56 Bi-Fab ADC) (bispecific antibody, not shown: large carriers)
heavy 1: EVQLVQSGAEVKKPGSSVKVSCKASGYTITDSNIHWVRQAPGQSLEWIGYIYPYNGGTDYNQKFKNRATLTVDNPTNTAYMELSSLRSEDTAFYYCVNGNPWLAYWGQGTLVTVSS
light 1: DIQLTQSPSTLSASVGDRVTIICRASESLDNYGIRFLTWFQQKPGKAPKLLMYAASNQGSGVPSRFSGSGSGTEFTLTISSLQPDDFATYYCQQTKEVPWSFGQGTKLEIK
heavy 2: EVQLVQSGAEVKKPGSSVKVSCKASGGTFTGYYMHWVRQAPGQGLEWMGWINPNSGGTNYAQKFQGRVTMTRDTSISTAYMELSRLRSDDTAVYYCARDLSSGYSGYFDYWGQGTLVTVSS
light 2: DVVMTQSPLSLPVTPGEPASISCRSSQSLLHSNGYNFLDWYLQKPGQSPQLLIYLGSNRASGVPDRFSGSGSGTDFTLKISRVEADDVGVYYCMQSLQTPWTFGHGTKVEIK

Tests used:
[1] = system: Human CD34+ progenitor cells; assay: Colony forming unit assay: differentiation of healthy CD34+ progenitor cells to myeloid CD33+ cells
Procedure: Methocult was thawed at 4° C. overnight. Methocult was shaken and allowed to stand at room temperature until all the bubbles had dispersed and aliquoted into 3 mL aliquots. A 6-point dose titration was prepared for each antibody in PBS to achieve the following final concentrations: 10, 3, 1, 0.1, 0.01 and 0 nM. Enough of each dilution was prepared to test activity across duplicate wells. Each titration was pipetted into a 1.5 mL tube. CD34+ cells were thawed at 37° C. and suspended in 2% FBS IMDM. 300 μL of suspension containing 3000 CD34+ cells were pipetted into each 1.5 mL tube containing antibody titration and the solution gently was mixed by pipetting. […] The total volume of antibody dilution added to the cells was 30 μL in all conditions. The cell suspension/conjugate mix was pipetted into a 3 mL aliquot of Methocult, vortexed for 5 seconds and allowed to stand at room temperature until the bubbles had disappeared. Using an 18-gauge blunt needle and 6 mL syringe, 1 mL of cell/conjugate/Methocult mix was transferred to a well of a Smart dish and each condition was tested across duplicate wells. Each plate was rocked to ensure the Methocult covered the entire well surface evenly and then placed in a 37° C., 5% CO2 incubator. The colonies were counted on day 9 and day 14 and the data plotted in Excel.

human CD33 (human) = human CD33 (human) (UniProt P20138); assay: cell-based or functional assay
human CD56 (human) = human CD56 (human) (UniProt P13591); assay: cell-based or functional assay
Chain of human CD56 (human) (P13591 other isoform, or with tags, fused parts or gaps limits assumed): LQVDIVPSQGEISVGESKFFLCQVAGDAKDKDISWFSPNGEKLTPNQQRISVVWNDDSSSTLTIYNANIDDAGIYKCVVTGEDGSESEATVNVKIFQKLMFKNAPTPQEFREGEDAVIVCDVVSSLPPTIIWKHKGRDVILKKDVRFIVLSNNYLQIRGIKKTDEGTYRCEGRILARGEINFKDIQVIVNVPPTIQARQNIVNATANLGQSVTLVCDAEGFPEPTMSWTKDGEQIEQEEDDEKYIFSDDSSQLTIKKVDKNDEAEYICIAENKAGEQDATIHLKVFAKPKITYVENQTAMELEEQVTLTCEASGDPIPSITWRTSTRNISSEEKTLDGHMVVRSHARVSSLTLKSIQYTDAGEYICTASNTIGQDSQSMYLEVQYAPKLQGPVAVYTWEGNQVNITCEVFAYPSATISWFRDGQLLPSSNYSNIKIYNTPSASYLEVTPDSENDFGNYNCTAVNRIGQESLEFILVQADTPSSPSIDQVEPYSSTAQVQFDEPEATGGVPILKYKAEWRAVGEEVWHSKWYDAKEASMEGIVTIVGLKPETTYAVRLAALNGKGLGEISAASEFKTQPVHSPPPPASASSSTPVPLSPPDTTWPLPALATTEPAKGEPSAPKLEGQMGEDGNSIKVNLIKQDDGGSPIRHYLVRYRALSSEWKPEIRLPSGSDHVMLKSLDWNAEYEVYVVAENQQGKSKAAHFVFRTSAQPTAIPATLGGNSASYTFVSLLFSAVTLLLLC

Chain of human CD33 (human) (P20138 18-364 R69G limits assumed): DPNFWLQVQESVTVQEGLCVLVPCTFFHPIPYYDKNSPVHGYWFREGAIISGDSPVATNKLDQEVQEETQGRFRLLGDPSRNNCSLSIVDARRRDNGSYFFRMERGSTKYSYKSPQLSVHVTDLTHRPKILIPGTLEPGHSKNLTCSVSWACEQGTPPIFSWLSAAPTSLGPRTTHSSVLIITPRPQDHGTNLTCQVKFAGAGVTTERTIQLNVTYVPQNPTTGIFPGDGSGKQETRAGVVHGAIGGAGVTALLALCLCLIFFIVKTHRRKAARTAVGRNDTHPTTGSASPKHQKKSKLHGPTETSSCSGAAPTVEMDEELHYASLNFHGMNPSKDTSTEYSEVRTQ

Row | Molecule | Av. % of Colonies Surviving at 10 nM vs Control ([1]; 9 days of incubation, Experiment 1) [%] | Av. % of Colonies Surviving at 10 nM vs Control ([1]; 9 days of incubation, Experiment 2) [%] | Av. % of Colonies Surviving at 10 nM vs Control ([1]; 14 days of incubation, Experiment 1) [%] | Av. % of Colonies Surviving at 10 nM vs Control ([1]; 14 days of incubation, Experiment 2) [%] | Mean IC50, cell kill assay (WST-1, 96 h) on KASUMI-3 cells (CD33+/CD56+) (human CD33 (human)) [nM] | Mean IC50, cell kill assay (WST-1, 96 h) on SET-2 cells (CD33+/CD56-) (human CD33 (human)) [nM] | Mean IC50, cell kill assay (WST-1, 96 h) on KASUMI-3 cells (CD33+/CD56+) (human CD56 (human)) [nM] | Mean IC50, cell kill assay (WST-1, 96 h) on KE-37 cells (CD33-/CD56+) (human CD56 (human)) [nM]
1 | GEMTUZUMAB: Gemtuzumab (In House), CD33 monospecific antibody, unconjugated | 102.33 | 113.3 | 100.5 | 82.8 |  |  |  | 
2 | B1 |  |  |  |  | 0.061 | > 30 | 0.061 | > 30
